Earlier results, collected in EP1180016B1, “METHODS AND COMPOSITIONS FOR NON-VIRAL GENE THERAPY FOR TREATMENT OF HYPERPROLIFERATIVE DISEASES” (Introgen Therapeutics, Inc., priority 1999, dated 2000).
Counter-ions that a name gives are not always drawn. *1 amine or outer side, *2 acyl side, *3 side chain or, on linkers, in order; H or OH if unused. Where a SMILES comes first, the peptide text is derived from it. Bridges are numbered along the chain shown (N, C = ends). Roman numbers before positions name the chains, in order. [ ]: non-standard residue; d: D form. Actinocin(9to1) = Cc1c2oc3c(C)ccc(C(=O)[*:1])c3nc-2c(C(=O)[*:2])c(N)c1=O; NMeV = CN[C@H](C(=O)O)C(C)C; Sar = CNCC(=O)O

Assays:
[1] = physiological pH
[2] = system: chronic myelogenous leukemia; conditions: previously untreated chronic myelogenous leukemia

## O=NN(CCCl)C(=O)NC1CCCCC1 [Lomustine, 1-(2-chloro-ethyl)-3-cyclohexyl-1 nitrosourea]
[1]
  ionization: relatively unionized
Oral radioactive lomustine, 30 mg/m^2 to 100 mg/m^2
  radioactivity excreted in the form of degradation products within 24 hours: about half

## COc1cccc2c1C(=O)c1c(O)c3c(c(O)c1C2=O)C[C@@](O)(C(C)=O)C[C@@H]3O[C@H]1C[C@H](N)[C@H](O)[C@H](C)O1 [Daunorubicin, 5,12-Naphthacenedione, (8S-cis)-8-acetyl-10-[(3-amino-2,3,6-trideoxy-a-L-lyxo-hexanopyranosyl)oxy]-7,8,9,10-tetrahydro-6,8,11-trihydroxy-10-methoxy-, hydrochloride]
intravenous
  half-life of distribution: 0.75 h

## O=C(O)CCCc1ccc(N(CCCl)CCCl)cc1 [Chlorambucil, 4-[bis(2-chlorethyl)amino] benzenebutanoic acid]
Single oral doses of 0.6-[…]
  terminal half-life of the parent drug: 1.5 h

## CS(=O)(=O)OCCCCOS(C)(=O)=O [Busulfan, 1,4-butanediol dimethanesulfonate]
[2]
  adults obtaining hematologic remission with regression or stabilization of organomegaly: Approximately 90%

## Cc1c2oc3c(C)ccc(C(=O)N[C@@H]4C(=O)N[C@H](C(C)C)C(=O)N5CCC[C@H]5C(=O)N(C)CC(=O)N(C)[C@@H](C(C)C)C(=O)O[C@@H]4C)c3nc-2c(C(=O)N[C@@H]2C(=O)N[C@H](C(C)C)C(=O)N3CCC[C@H]3C(=O)N(C)CC(=O)N(C)[C@@H](C(C)C)C(=O)O[C@@H]2C)c(N)c1=O [Actinomycin D] (I: T[dV]P[Sar][NMeV] / II: T[dV]P[Sar][NMeV]; ester I:1-I:C, II:1-II:C; linker I:N-II:N via Actinocin(9to1))
In vivo
  dose excreted intact into the bile: Half
